Laboratory results as given in PubChem BioAssay AID248 (DTP/NCI, 2004).
Inconclusive results and toxic doses are left out. Cut-off read from the data, not from the text of the source: active = T/C of 150% or more; inactive = T/C below 125%.

System: L1210 leukemia ip in BDF1 mice, survival T/C
Experiment: NCI In Vivo Anticancer Drug Screen. Data for tumor model L1210 Leukemia (intraperitoneal) in B6D2F1 (BDF1) mice
Conditions: endpoint: mean survival time, higher = longer survival
Summary of the method: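 Value reflects the ratio of survival in compound-treated mice to survival in vehicle-treated controls, with both groups carrying the same transplanted tumor.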

Measured: T/C

O=C(O)CCC(NC(=O)C1CCCCC1C(=O)O)C(=O)O (configuration not stated)
inactive: dose: 100.0 mg/kg/injection, schedule: Q04DX003 (ip), vehicle: saline 96 % of control | dose: 200.0 mg/kg/injection, schedule: Q04DX003 (ip), vehicle: saline 86 % of control | dose: 400.0 mg/kg/injection, schedule: Q04DX003 (ip), vehicle: saline 87 % of control

C[P+](C)(c1ccccc1)c1ccccc1
inactive: dose: 3.12 mg/kg/injection, schedule: Q01DX009 (ip), vehicle: saline with Tween-80 108 % of control | dose: 6.25 mg/kg/injection, schedule: Q01DX009 (ip), vehicle: saline with Tween-80 101 % of control | dose: 12.5 mg/kg/injection, schedule: Q01DX009 (ip), vehicle: saline with Tween-80 97 % of control | dose: 12.5 mg/kg/injection, schedule: Q04DX003 (ip), vehicle: saline with Tween-80 102 % of control
